Like-named read-outs stand apart in the source and are kept apart here.
Columns and labels:
HCT116 [1] = test: MTS antiproliferative assay, HCT116 (with or without added metal ions); assay type: cell-based, human; details: 96 h
Description: The cells were seeded in 96-well plates (Nunc) at a density of 3,500 cells/well (HCT116 and MCF-7) and 3,000 cells/well (NHDF) and incubated at 37° C for 24 h. The assay was performed following a 96 h incubation with varying concentrations of the compounds that were being tested. Then, 20 µL of CellTiter 96® AQueous One Solution-MTS (Promega) was added to each well (with 100 µL DMEM without phenol red) and incubated for 1 h at 37° C. The optical densities of the samples were analyzed at 490 nm using a multi-plate reader (Synergy 4, Bio Tek). Results were expressed as a percentage of the control and calculated as the inhibitory concentration (IC50) values (using GraphPad Prism 5). The IC50 parameter was defined as the compound concentration that was necessary to reduce the proliferation of cells to 50% of the untreated control. Each individual compound was tested in triplicate in a single experiment with each experiment being repeated three or four times.
The HCT116 and MCF-7 cells were seeded in 96-well plates (Nunc) at a density of 3,500 cells/well and incubated at 37° C for 24 h. The MTS assay was performed following a 96 h incubation with varying concentrations of the tested compounds. Additionally, a 20 µM solution of CuSO4, FeSO4 or FeCl3 was added into wells with the tested compounds. The results were expressed as a percentage of the control and calculated as the inhibitory concentration (IC50) values using GraphPad Prism 5. Each individual compound was tested in triplicate in a single experiment with each experiment being repeated three times.

CAT = test: mRNA expression (Real-Time PCR) of CAT; assay type: cell-based, human; details: HCT116, TSC 1 µM, after the first 12 h
Description: The HCT116 cells were seeded in 3 cm Petri dishes (Nunc) at a density of 0.5·10^6 cells/well and incubated overnight. Next, the medium was removed and solutions of TSC (1 μM) and DOX (5 μM) were added. After 12 or 24 h, total RNA was isolated from the cells using TRIzol Reagent (Ambion) according to the manufacturer’s instructions. cDNA synthesis was performed with 5 μg of total RNA using a GoScript™ Reverse Transcriptase kit (Promega) and Oligo(dT)23 Primers (Sigma). The Real-Time PCR was performed with a CTX96 Touch™ Real-Time PCR Detection System (Biorad) in a 20 μL reaction volume. The reaction consisted of PowerUp™ SYBR® Green Master Mix (Applied Biosystems), a primer pair mix (0.5 μM each) and 1 μL of cDNA. All primer pair sequences were purchased from Sigma-Aldrich and are listed in Supplementary Table 2. The experiment was performed under the following conditions: initial denaturation at 95° C for 120 sec; followed by 40 denaturation cycles at 95° C, 15 sec; annealing (primer-specific temperature for 30 sec) and extension at 72° C for 60 sec. Data was analyzed based on a comparison of the expression of the target genes to a reference gene – β-actin, using the 2^–ΔΔCT method. The experiments were performed at least three times.

cdc2 = test: Western blot of cdc2; assay type: cell-based, human; details: HCT116, 1 µM
Description: The HCT116 cells were seeded in 3 cm Petri dishes (Nunc) at a density of 0.5·10^6 cells/well and incubated overnight. The next day, solutions of TSC (1 μM) and DOX (5 μM) were added and the cells incubated for 24 or 48 h. Cells were harvested by trypsinization and washed with cold PBS. Next, the cells were centrifuged and suspended in an RIPA buffer (Thermo Scientific) containing Halt Protease Inhibitor Cocktail (Thermo Scientific), Halt Phosphatase Inhibitor Cocktail (Thermo Scientific) along with 0.5 M EDTA and lysed for 20 min on ice. Then, the lysates were sonicated, centrifuged at 10,000 rpm for 10 min at 4° C and the supernatants were collected for further analysis. The protein concentration was determined using a Micro BCA™ Protein Assay Kit (Thermo Scientific) according to the manufacturer’s instructions. Equal amounts of the proteins (20 μg) were electrophoresed on SDS-Page gels and transferred onto a nitrocellulose membranes. The membranes were blocked in 5% non-fat milk prepared in PBS containing 0.1% Tween-20 (TPBS) for 1 h. After blocking, the membranes were incubated with specific primary antibodies: cdc2 (#POH1, Cell Signaling), p21^Waf1/Cip1 (#12D1, Cell Signaling), p53 (#1C12, Cell Signaling) and β-Actin (#8H10D10, Cell Signaling) overnight at 4° C, then washed and incubated with horseradish peroxidase (HRP)-conjugated secondary antibodies for 1h at room temperature. All of antibodies were diluted 1:1000 in 5% milk in TPBS. Finally, the membranes were washed and incubated with a SuperSignal™ West Pico Chemiluminescent Substrate (Thermo Scientific). The chemiluminescence signals were captured using a ChemiDoc™ XRS+ System (BioRad). The experiments were performed at least three times. Densitometric analysis was performed using ImageJ 1.41 software (Wayne Rasband, National Institutes of Health, USA).

HCT116 cells = test: Cell cycle assay (Muse Cell-Cycle Kit); assay type: cell-based, human; details: HCT116, TSC 1 µM, 48 h
Description: The HCT116 cells were seeded in 3 cm Petri dishes (Nunc) at a density of 0.25·10^6 cells/well and incubated at 37° C for 24 h. […] After a 48 h treatment, assays were performed using a Muse Cell-Cycle Kit (Millipore) according to the manufacturer’s instructions. Briefly, cells were collected, washed with cold PBS and centrifuged at 300 g. Then, the cells were fixed in ice cold 70% ethanol and stored at –20° C overnight. Afterwards, the cells were centrifuged and resuspended in 200 μL of Muse™ Cell Cycle Reagent and incubated for 30 min at room temperature in the dark. After staining, the cells were processed for cell cycle analysis using a Muse Cell Analyzer (Millipore). The experiments were performed at least three times.

HCT116 [2] = tested on: HCT116; design: method as in PMID 25329549; details: 96 h incubation, MTS; cited from earlier work

IC50 (HCT116 [1]; 20 µM CuSO4 added, read-out: Activity - IC50 HCT116+ Cu^2+): 0.68 ± 0.15 nM
IC50 (HCT116 [1]; 20 µM FeCl3 added, read-out: Activity - IC50 HCT116+ Fe^3+): 2.07 ± 0.78 nM
Compound: S=C(NN=C(c1ccccn1)c1ccccn1)N1CCN(c2ccccc2)CC1 [Compound 3a]
mRNA expression of CAT (CAT): higher
expression of cdc2 protein (densitometric analysis) (cdc2): increased the expression
cells in S phase (HCT116 cells): 33–35%
cells in G2/M phase (HCT116 cells; untreated 7%): 17%
IC50 (HCT116 [2]): 0.81 ± 0.13 nM

— PMC5915149, “The role of oxidative stress in activity of anticancer thiosemicarbazones” (Oncotarget, 2018)
